Assay results: ChEMBL document CHEMBL4665794, “Formicolides A and B, Antioxidative and Antiangiogenic 20-Membered Macrolides from a Wood Ant Gut Bacterium” (J Nat Prod, 2020)

Experiments:
[1] = target: NAD(P)H dehydrogenase [quinone] 1 (Mus musculus) (UniProt Q64669); assay: Activation of quinone reductase in mouse Hepa1c1c7 cells at 20 uM incubated for 24 hrs by MTT based assay relative to control; type: cell-based; conditions: filed as activator
[2] = test system: HUVEC; assay: Anti-angiogenesis activity in HUVEC assessed as inhibition of VEGF-induced tube formation incubated for 6 hrs by capillary tube formation assay; type: functional, cell-based; conditions: Homo sapiens
[3] = Cytotoxicity against mouse Hepa1c1c7 cells assessed as reduction in cell viability after 24 hrs by MTT assay; type: cell-based; conditions: hepa1c1c7, 24 h

Chain of NAD(P)H dehydrogenase [quinone] 1 (Mus musculus) (Q64669 whole entry): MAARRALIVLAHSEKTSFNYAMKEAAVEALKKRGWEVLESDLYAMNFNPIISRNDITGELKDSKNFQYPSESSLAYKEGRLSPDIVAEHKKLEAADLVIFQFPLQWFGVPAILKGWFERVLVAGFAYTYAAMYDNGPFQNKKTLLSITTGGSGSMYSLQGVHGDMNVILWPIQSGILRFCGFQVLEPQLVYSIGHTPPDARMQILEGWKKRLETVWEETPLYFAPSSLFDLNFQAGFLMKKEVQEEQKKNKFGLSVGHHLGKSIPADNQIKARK

SMILES | fold change (FC) [1] | IC50 [2] | Activity [3]
C/C=C\[C@@H](O)CC[C@@H](C)[C@@H](O)[C@H](C)[C@]1(C)C/C=C/C=C/[C@H](O)C(=O)/C(C)=C/C=C/C(C)=C/[C@@H](O)/C(C)=C/CC(=O)O1 | 2.08 | 13 µM | Non-Toxic
CCC[C@]1(O)C[C@H](O)[C@@H](C)[C@H]([C@H](C)[C@@H]2C/C=C/C=C/[C@H](O)C(=O)/C(C)=C/C=C/C(C)=C/[C@@H](O)/C(C)=C/CC(=O)O2)O1 | 2.07 | 20 µM | Non-Toxic
CCN(CC)CCNC(=O)c1c(C)[nH]c(/C=C2\C(=O)Nc3ccc(F)cc32)c1C [SUNITINIB] |  | 1.5 µM | 
